SMILES strings stand for the structures. Like-named read-outs stand apart in the source and are kept apart here. Where only a bound is given, the exact number is not on record here.

Data on 11 compounds can be found in patent publication US10144713B1, “Bis-cyclic guanidines as antibacterial agents” (UNIVERSITY OF SOUTH FLORIDA, priority 2017, dated 2018).

One data set has as its system E. coli (ATCC 25922). The data set is described as follows: MIC against E. coli. It counts as cell-based. Particulars: Escherichia coli, ATCC25922; Gram −; 16 h, 37° C. The protocol:
(§1) Minimum Inhibitory Concentrations (MICs) Against Bacteria.
(§2) The antimicrobial activity of the compounds was tested on the following six bacteria strains: K. pneumoniae (ATCC 13383), P. aeruginosa (ATCC27853), E. coli (ATCC 25922), vancomycin-resistant Enterococcus faecalis(ATCC 700802), Methicillin-resistant S. aureus (MRSA, ATCC 33591), Methicillin-resistant S. epidermidis (MRSE, RP62A). The procedures were followed as reported previously (Hancock et al., Immunobiology 2006, 211, 315-322). Briefly, a single colony of each bacterium was inoculated in 3 mL TSB medium and incubated overnight at 37° C. Then the bacteria culture was diluted at 1:100 and the bacteria were allowed to grow to mid-logarithmic phase. Next, 50 μL of 2-fold serial dilutions of compounds (0.1-25 μg/mL) were added the 96-well plate containing aliquots of 50 μL of bacteria suspension (1×10^6 CFU/mL) in each well. The mixture was incubated at 37° C. for 16 h, and their absorption at 600 nm wavelength was read on a Biotek Synergy HT microtiter plate reader. […] The experiments were repeated at least three times with duplicates each time. HC50 means the concentration causing 50% hemolysis.

Data set [1] deals with P. aeruginosa (ATCC27853). Briefly: MIC against P. aeruginosa. Particulars: for MIC: Pseudomonas aeruginosa, ATCC27853, Gram −, 16 h, 37° C. It counts as cell-based. The protocol:
as §1, §2

Data set [2] deals with K. pneumoniae (ATCC 13383). Briefly: MIC against K. pneumoniae. It counts as cell-based. As to conditions: Klebsiella pneumoniae, ATCC13383; Gram −; 16 h, 37° C. The protocol: as §1, §2
Data set [3] has as its system Methicillin-resistant S. aureus (MRSA, ATCC 33591). The data set is described as follows: MIC against MRSA. Particulars: Staphylococcus aureus; Gram +; 16 h, 37° C. It counts as cell-based. The protocol:
as §1, §2

The subject of data set [4] is Methicillin-resistant S. epidermidis (MRSE, RP62A). Briefly: MIC against MRSE. Particulars: Staphylococcus epidermidis, MRSE; Gram +; 16 h, 37° C. The format is cell-based. The protocol: as §1, §2
Data set [5] deals with vancomycin-resistant Enterococcus faecalis (ATCC 700802). Briefly: MIC against VRE. The format is cell-based. Particulars: Gram +; 16 h, 37° C. The protocol: as §1, §2
The test system of data set [6] is human red blood cells (hRBCs). Briefly: Hemolytic assay. It counts as cell-based. As to conditions: for Hemolysis (HC50): concentration causing 50% hemolysis, hRBCs, 37° C., 1 h. The protocol: The freshly drawn, K2EDTA treated human red blood cells (hRBCs) were washed with 1×PBS buffer, and centrifuged at 3500 rpm for 10 min. The step was repeated until the supernatant became clear. The supernatant was removed, and the RBCs were diluted into 5% v/v suspension. 50 μL of the suspension was incubated with 50 μL of compounds of different concentrations at 37° C. for 1 h. The mixture was centrifuged at 3500 rpm for 10 min. Subsequently, to 30 μL of the supernatant 100 μL PBS was added, and the absorbance of the mixture at 540 nm was read on a Biotek Synergy HT plate reader. The positive control was 2% Triton X-100, and the negative control was 1×PBS alone. The hemolysis activity was calculated by the formula % hemolysis=(Abssample−AbsPBS)/(AbsTriton−AbsPBS)×100%. The experiment was repeated at least three times with duplicates each time.

Data set [7] has as its system six bacteria strains (K. pneumoniae, P. aeruginosa, E. coli, VRE, MRSA, MRSE). Briefly: Antimicrobial activity on the panel of six bacteria strains. The format is cell-based. The protocol:
as §1, §2

Another data set has as its system E. coli. Briefly: Time-kill study. It counts as cell-based. The protocol:
The killing activity was monitored for the first 2 h. The concentrations for compound 11 were 2×MIC, 4×MIC, and 8×MIC, respectively.
Time-kill studies were conducted to investigate the bacterial killing kinetics of compounds 11 and 12 by using E. Coli. Briefly, the bacteria […] grew to mid-logarithmic phase in TSB medium, from which the suspension (10^6 CFU/ml) was made. The suspension was incubated with different concentrations of 11 or 12 for 10 min, 30 min, 1 h and 2 h respectively. The mixtures were diluted by 10^2 to 10^4 fold and spread on TSB agar plates. After incubation at 37° C. overnight, the colonies on the plates were counted and plotted against the incubation time. […] Cell colonies were counted in agar plates at 12.5, 25, and 50 μg/mL. Compound 11 at the concentration of 12.5 or 25 μg/mL completely removed all bacteria in 2 hours, and at 50 μg/mL it completely removed bacteria in 0.5 hour. Compound 12 killed E. Coli completely in 0.5 hour at the concentration of 12.5 μg/mL.

In the next data set the test system is S. aureus ATCC 33591. The data set is described as follows: Thigh burden infection model in neutropenic mice. As to conditions: 5 mg/kg i.v. at 1 and 7 h after infection, thighs harvested at 25 h. It counts as in vivo, CD-1 female mice. The protocol: Neutropenic mice (n=4 per group) were inoculated in the posterior thigh muscles with S. aureus ATCC 33591 at 1×10^6 CFU per thigh and then treated with compounds 11 and 12 (5 mg/kg per dose) by i.v. bolus injection in the tail vein at 1 and 7 h after infection.
A thigh burden model was employed to evaluate the in vivo anti-infective activity of compounds 11 and 12, in which the thigh muscle of neutropenic mice was inoculated with S. aureus, followed by intravenous (i.v.) administration of corresponding compounds. All protocols and methods associated with animal experiments were approved by University of South Florida (USF) Institutional Animal Care and Use Committee. The in vivo experiment on the mouse model of the thigh burden infection with MRSA was conducted adapted from previously reported protocol. The CD-1 female mice which were 6 to 8 weeks old and around 25 g in weights were used for the study. Neutropenic Mice were induced by injecting cyclophosphamide (150 mg/kg) intraperitoneally twice at 4 and 1 days before bacterial inoculation. One MRSA colony from tryptic soy agar (TSA) cultures was allowed to grow in tryptic soy broth (TSB) overnight at 37° C., then 100 μL culture was withdrawn and diluted with TSB to a total volume of 4 mL, which was subsequently incubated at 37° C. for another 6 h. […] The formed colonies were counted to calculate CFU per thigh.

Where [8] appears, read: read-out: MIC against Gram-positive bacteria.
Where [9] appears, read: read-out: MIC for Gram-negative bacteria (except for P. aeruginosa).

Turning to `N=C1N(CC(=O)Nc2ccc(NC(=O)CN3C[C@H](Cc4ccccc4)N(CCCc4ccccc4)C3=N)cc2)C[C@H](Cc2ccccc2)N1CCCc1ccccc1` [Compound 5], the MIC in the data set with E. coli (ATCC 25922) was 1.5 to 3 µg/mL; in data set [1], 12 to 25 µg/mL; in [2] it was 1.5 to 3 µg/mL; in [3] it was 0.33 µg/mL; in data set [4], 0.75 µg/mL; in data set [5], 0.75 µg/mL. Also, the minimal inhibitory concentration (MIC) in data set [7] (setting [8]) and in data set [7] (setting [9]) was under 3 µg/mL each time. In data set [6], the “Hemolysis (HC50)” value worked out at 140 µg/mL.
Turning to `N=C1N(CC(=O)Nc2cccc(NC(=O)CN3C[C@H](Cc4ccccc4)N(CCCc4ccccc4)C3=N)c2)C[C@H](Cc2ccccc2)N1CCCc1ccccc1` [Compound 6], the minimal inhibitory concentration (MIC) in the data set with E. coli (ATCC 25922) is 3 to 6 µg/mL; in [1], 12 to 25 µg/mL; in [2] it was 3 µg/mL; in data set [3], 1.5 to 3 µg/mL; in [4], 1.5 µg/mL; in data set [5], 1.5 µg/mL. In addition, the MIC in data set [7] (setting [8]) and in data set [7] (setting [9]) was under 3 µg/mL in each case. In addition, the “Hemolysis (HC50)” value in data set [6] is over 250 µg/mL.
Take `N=C1N(CC(=O)NCCCCCCNC(=O)CN2C[C@H](Cc3ccccc3)N(CCCc3ccccc3)C2=N)C[C@H](Cc2ccccc2)N1CCCc1ccccc1` [Compound 9]: the MIC was 3 to 6 µg/mL in the data set with E. coli (ATCC 25922); over 25 µg/mL in data set [1]; 3 to 6 µg/mL in data set [2]; 0.75 µg/mL in data set [3]; 0.75 to 1.5 µg/mL in data set [4]; 1.5 to 3 µg/mL in data set [5]. Moreover, the “activity against P. aeruginosa (in words)” value in [1] was “not active”. Besides, the “Hemolysis (HC50)” value in data set [6] stood at 100 µg/mL. In [6] (text b247, unit as printed), the 50% haemolytic concentration (HC50) was 100 µg/mL.
In the case of `CCCCCCN1C(=N)N(CC(=O)Nc2ccc(NC(=O)CN3C[C@H](Cc4ccccc4)N(CCCCCC)C3=N)cc2)C[C@@H]1Cc1ccccc1` [Compound 11], the MIC with E. coli (ATCC 25922) was determined as 1.5 µg/mL; in data set [1] it was 6 µg/mL; in [2], 1.5 µg/mL; in [3], 0.33 µg/mL; in [4] it was 0.75 µg/mL; in data set [5], 0.75 µg/mL. The “selectivity, hemolytic activity against MIC values of MRSA” value in data set [6] came to 769 folds. Besides, the figures for the “time to completely remove all bacteria” value in the data set with E. coli (12.5 μg/mL), in the data set on E. coli (25 μg/mL) and in the data set with E. coli (50 μg/mL) were 2 h, 2 h and 0.5 h, respectively. The “decrease in colony-forming unit (CFU) per thigh” value in the data set with S. aureus ATCC 33591 is reported as 3 log10 CFU. In addition, the “antibacterial activity against the tested bacteria (in words)” value in data set [7] is “potent and broad-spectrum activity”.
Regarding `CCCCCCN1C(=N)N(CC(=O)NCCCCNC(=O)CN2C[C@H](Cc3ccccc3)N(CCCCCC)C2=N)C[C@@H]1Cc1ccccc1` [Compound 13], the MIC in the data set with E. coli (ATCC 25922) was 1.5 µg/mL; in [1], over 25 µg/mL; in data set [2], 6 to 12 µg/mL; in data set [3] it was 0.75 µg/mL; in data set [4] it was 1.5 µg/mL; in data set [5], 3 to 6 µg/mL. Also, in [1], the “activity against P. aeruginosa (in words)” value was “reduced activity”. Further, the “Hemolysis (HC50)” value in data set [6] is over 250 µg/mL.
In the case of `CCCCCCN1C(=N)N(CC(=O)NCCCCCCNC(=O)CN2C[C@H](Cc3ccccc3)N(CCCCCC)C2=N)C[C@@H]1Cc1ccccc1` [Compound 14], the MIC with E. coli (ATCC 25922) is 1.5 µg/mL; in [1], over 25 µg/mL; in data set [2] it was 3 to 6 µg/mL; in [3], 0.325 µg/mL; in [4], 0.75 µg/mL; in data set [5], 1.5 µg/mL. Moreover, the “activity against P. aeruginosa (in words)” value in data set [1] is “reduced activity”. For the same compound, the “Hemolysis (HC50)” value in data set [6] is over 250 µg/mL.
Consider `CCCCCCN1C(=N)N(CC(=O)NCCCCCCCCNC(=O)CN2C[C@H](Cc3ccccc3)N(CCCCCC)C2=N)C[C@@H]1Cc1ccccc1` [Compound 15], for which the MIC in the data set with E. coli (ATCC 25922) is 0.75 to 1.5 µg/mL; in data set [1], over 25 µg/mL; in data set [2] it was 1.5 to 3 µg/mL; in [3], 0.75 µg/mL; in [4], 1.5 µg/mL; in data set [5], 0.325 µg/mL. Moreover, in data set [1], the “activity against P. aeruginosa (in words)” value is reported as “reduced activity”. In [6], the “Hemolysis (HC50)” value is over 250 µg/mL.
Take `CCCCCCCCN1C(=N)N(CC(=O)Nc2cccc(NC(=O)CN3C[C@H](Cc4ccccc4)N(CCCCCCCC)C3=N)c2)C[C@@H]1Cc1ccccc1` [Compound 18]: the MIC with E. coli (ATCC 25922) was over 25 µg/mL; in data set [3] it was 1.5 µg/mL. Moreover, the “antibacterial activity against the tested bacteria (in words)” value in data set [7] is given as “decreased activity”.
Take `N=C1N(CC(=O)Nc2ccc(NC(=O)CN3C[C@H](Cc4ccccc4)N(CCCC4CCCCC4)C3=N)cc2)C[C@H](Cc2ccccc2)N1CCCC1CCCCC1` [Compound 19]: the minimal inhibitory concentration (MIC) in the data set with E. coli (ATCC 25922) was 12 µg/mL; in data set [1], over 25 µg/mL; in data set [2], 1.5 to 3 µg/mL; in [3], 0.75 µg/mL; in [4] it was 0.33 µg/mL; in data set [5], 0.75 µg/mL. In data set [6], the “Hemolysis (HC50)” value came out at 5 µg/mL.
In the case of `N=C1N(CC(=O)Nc2cccc(NC(=O)CN3C[C@H](Cc4ccccc4)N(CCCC4CCCCC4)C3=N)c2)C[C@H](Cc2ccccc2)N1CCCC1CCCCC1` [Compound 20], the MIC in the data set on E. coli (ATCC 25922) is 12 µg/mL; in data set [1], over 25 µg/mL; in data set [2], 1.5 to 3 µg/mL; in data set [3] it was 0.325 µg/mL; in data set [4] it was 0.33 µg/mL; in data set [5], 1.5 µg/mL. For the same compound, the “Hemolysis (HC50)” value in [6] was 26 µg/mL.
For `CCCCCCN1C(=N)N(CC(=O)Nc2cccc(NC(=O)CN3C[C@H](CC(C)C)N(CCCCCC)C3=N)c2)C[C@@H]1CC(C)C` [Compound 23], the MIC was 1.5 to 3 µg/mL in the data set with E. coli (ATCC 25922); 6 to 12 µg/mL in [1]; 0.75 µg/mL in [2]; 1.5 µg/mL in [3]; 1.5 µg/mL in [4]; 0.75 µg/mL in data set [5]. Moreover, the “Hemolysis (HC50)” value in [6] is 200 µg/mL.

The term MIC denotes the lowest concentration found to suppress growth. Broadly, the HC50 is the concentration that lyses half of the red blood cells.
